Reference: ChEMBL document CHEMBL3885861, “Open TG-GATES”

Species: Rattus norvegicus
Assay: Open TG-GATES - Regimen: Single
Type: toxicity, organism-based, Sprague-Dawley
Set-up: regimen Single, gender Male, age 6 weeks
Conditions: in vivo, po, 1000 mg/kg, route gavage, dose level High; for APTT / Bas / Eos / Fbg / Hb / Ht / Lym / MCH / MCHC / MCV / Mono / Neu / PT / Plat / RBC / Ret / WBC: tissue Blood; for KIDNEY_L / KIDNEY_R / KIDNEY_TOTAL: tissue Kidney; for LIVER: tissue Liver; for A/G / ALP / ALT / AST / BUN / CRE / Ca / Cl / DBIL / GLC / IP / K / LDH / Na / PL / RALB / TBIL / TC / TG / TP / gamma-GTP: tissue Plasma

Compound: CC(S)C(=O)NCC(=O)O (configuration not stated) [TIOPRONIN]
- TERMINAL_BW (3 h): 213.5 g
- APTT (3 h): 23 s
- Bas (3 h): 0%
- Eos (3 h): 0.4%
- Fbg (3 h): 307.8 mg/dL
- Hb (3 h): 13 g/dL
- Ht (3 h): 40.2%
- Lym (3 h): 75.8%
- MCH (3 h): 20.5 pg
- MCHC (3 h): 32.3%
- MCV (3 h): 63.5 fL
- Mono (3 h): 4%
- Neu (3 h): 18%
- PT (3 h): 17.1 s
- Plat (3 h): 120.4 x10_4/uL
- RBC (3 h): 633.8 x10_4/ul
- Ret (3 h): 8%
- WBC (3 h): 75.4 x10_2/uL
- KIDNEY_L (3 h): 0.9 g
- KIDNEY_R (3 h): 0.9 g
- KIDNEY_TOTAL (3 h): 1.8 g
- LIVER (3 h): 9.2 g
- A/G (3 h): 1.1
- ALP (3 h): 1422.8 IU/L
- ALT (3 h): 95.4 IU/L
- AST (3 h): 90 IU/L
- BUN (3 h): 11.2 mg/dL
- CRE (3 h): 0.1 mg/dL
- Ca (3 h): 10.4 mg/dL
- Cl (3 h): 106.8 meq/L
- DBIL (3 h): 0 mg/dL
- GLC (3 h): 199.4 mg/dL
- IP (3 h): 9.1 mg/dL
- K (3 h): 4 meq/L
- LDH (3 h): 232.2 IU/L
- Na (3 h): 141.4 meq/L
- PL (3 h): 115.4 mg/dL
- RALB (3 h): 2.8 g/dL
- TBIL (3 h): 0.008 mg/dL
- TC (3 h): 69 mg/dL
- TG (3 h): 52.8 mg/dL
- TP (3 h): 5.3 g/dL
- gamma-GTP (3 h): 1.8 IU/L
- TERMINAL_BW (6 h): 211.1 g
- APTT (6 h): 23.4 s
- Bas (6 h): 0%
- Eos (6 h): 0.4%
- Fbg (6 h): 291.4 mg/dL
- Hb (6 h): 12.9 g/dL
- Ht (6 h): 39.5%
- Lym (6 h): 76.2%
- MCH (6 h): 20.3 pg
- MCHC (6 h): 32.6%
- MCV (6 h): 62.4 fL
- Mono (6 h): 3.2%
- Neu (6 h): 18.6%
- PT (6 h): 17.6 s
- Plat (6 h): 120 x10_4/uL
- RBC (6 h): 632.6 x10_4/ul
- Ret (6 h): 8.1%
- WBC (6 h): 99 x10_2/uL
- KIDNEY_L (6 h): 0.9 g
- KIDNEY_R (6 h): 0.9 g
- KIDNEY_TOTAL (6 h): 1.9 g
- LIVER (6 h): 8.2 g
- A/G (6 h): 1.2
- ALP (6 h): 1452 IU/L
- ALT (6 h): 77.2 IU/L
- AST (6 h): 78 IU/L
- BUN (6 h): 9 mg/dL
- CRE (6 h): 0.1 mg/dL
- Ca (6 h): 10.3 mg/dL
- Cl (6 h): 107 meq/L
- DBIL (6 h): 0.002 mg/dL
- GLC (6 h): 196 mg/dL
- IP (6 h): 9.3 mg/dL
- K (6 h): 4.1 meq/L
- LDH (6 h): 147.4 IU/L
- Na (6 h): 140.4 meq/L
- PL (6 h): 100.4 mg/dL
- RALB (6 h): 2.8 g/dL
- TBIL (6 h): 0.016 mg/dL
- TC (6 h): 59.8 mg/dL
- TG (6 h): 31.6 mg/dL
- TP (6 h): 5.2 g/dL
- gamma-GTP (6 h): 1.8 IU/L
- TERMINAL_BW (9 h): 211.2 g
- APTT (9 h): 23.6 s
- Bas (9 h): 0%
- Eos (9 h): 0.2%
- Fbg (9 h): 271.2 mg/dL
- Hb (9 h): 12.6 g/dL
- Ht (9 h): 39.2%
- Lym (9 h): 74.6%
- MCH (9 h): 20.3 pg
- MCHC (9 h): 32%
- MCV (9 h): 63.2 fL
- Mono (9 h): 1.4%
- Neu (9 h): 23.4%
- PT (9 h): 17.6 s
- Plat (9 h): 123.5 x10_4/uL
- RBC (9 h): 621.6 x10_4/ul
- Ret (9 h): 7.4%
- WBC (9 h): 71.9 x10_2/uL
- KIDNEY_L (9 h): 1 g
- KIDNEY_R (9 h): 1 g
- KIDNEY_TOTAL (9 h): 1.9 g
- LIVER (9 h): 7.8 g
- A/G (9 h): 1.2
- ALP (9 h): 1385.8 IU/L
- ALT (9 h): 69.4 IU/L
- AST (9 h): 80.6 IU/L
- BUN (9 h): 9.4 mg/dL
- CRE (9 h): 0.1 mg/dL
- Ca (9 h): 10.5 mg/dL
- Cl (9 h): 106.8 meq/L
- DBIL (9 h): 0.006 mg/dL
- GLC (9 h): 188.2 mg/dL
- IP (9 h): 9.1 mg/dL
- K (9 h): 4.3 meq/L
- LDH (9 h): 160.4 IU/L
- Na (9 h): 140.8 meq/L
- PL (9 h): 98.6 mg/dL
- RALB (9 h): 2.8 g/dL
- TBIL (9 h): 0.018 mg/dL
- TC (9 h): 55.6 mg/dL
- TG (9 h): 40.4 mg/dL
- TP (9 h): 5.2 g/dL
- gamma-GTP (9 h): 1.2 IU/L
- TERMINAL_BW (24 h): 228 g
- APTT (24 h): 22.3 s
- Bas (24 h): 0%
- Eos (24 h): 1%
- Fbg (24 h): 307.2 mg/dL
- Hb (24 h): 12.8 g/dL
- Ht (24 h): 39.1%
- Lym (24 h): 76.8%
- MCH (24 h): 20.2 pg
- MCHC (24 h): 32.6%
- MCV (24 h): 62.1 fL
- Mono (24 h): 3.2%
- Neu (24 h): 18%
- PT (24 h): 16.2 s
- Plat (24 h): 115.2 x10_4/uL
- RBC (24 h): 630.2 x10_4/ul
- Ret (24 h): 7.7%
- WBC (24 h): 117.2 x10_2/uL
- KIDNEY_L (24 h): 1 g
- KIDNEY_R (24 h): 1 g
- KIDNEY_TOTAL (24 h): 2 g
- LIVER (24 h): 10.2 g
- A/G (24 h): 1.2
- ALP (24 h): 1503 IU/L
- ALT (24 h): 47 IU/L
- AST (24 h): 76.6 IU/L
- BUN (24 h): 16.2 mg/dL
- CRE (24 h): 0.2 mg/dL
- Ca (24 h): 10.8 mg/dL
- Cl (24 h): 107.4 meq/L
- DBIL (24 h): 0 mg/dL
- GLC (24 h): 181.6 mg/dL
- IP (24 h): 7.4 mg/dL
- K (24 h): 4.6 meq/L
- LDH (24 h): 176.2 IU/L
- Na (24 h): 142.6 meq/L
- PL (24 h): 138.8 mg/dL
- RALB (24 h): 2.9 g/dL
- TBIL (24 h): 0.008 mg/dL
- TC (24 h): 76.8 mg/dL
- TG (24 h): 117 mg/dL
- TP (24 h): 5.4 g/dL
- gamma-GTP (24 h): 1.4 IU/L
